Data published in ChEMBL document CHEMBL4002643, “Tubulin-binding dibenz[c,e]oxepines: Part 2. Structural variation and biological evaluation as tumour vasculature disrupting agents” (Bioorg Med Chem, 2017).

Key:
K562 = assay: Cytotoxicity against human K562 cells assessed as growth inhibition after 5 days by MTT assay; format: functional, cell-based; details: K562, 120 h
[1] = Inhibition of porcine tubulin assembly measured for 30 mins by UV/visible spectrophotometric method; set-up: species or system Sus scrofa

IC50 [1]	Structure (SMILES)	IC50 (K562)
–	COc1ccc(/C=C\c2cc(OC)c(OC)c(OC)c2)cc1O [COMBRETASTATIN A4]	1 µM
> 10 µM	COc1cc2c(c(OC)c1OC)-c1ccc([N+](=O)[O-])cc1COC2	16 µM
